Experimental data taken from patent US9758561B2 (priority 2014, dated 2017).

target: T1, human GLP-1 receptor (Homo sapiens, UniProt P43220); experiment: cAMP response of HEK-293 cells stably expressing human GLP-1 receptor (HTRF); format: cell-based; settings: Table 6; read-out: EC50 hGLP-1R
T1 construct: expressed in transfected cells; host or cells: HEK-293
Method: For preparation, cells were split into T175 culture flasks and grown overnight to near confluency in medium (DMEM/10% FBS). Medium was then removed and cells washed with PBS lacking calcium and magnesium, followed by proteinase treatment with accutase (Sigma-Aldrich cat. no. A6964). Detached cells were washed and resuspended in assay buffer (1×HBSS; 20 mM HEPES, 0.1% BSA, 2 mM IBMX) and cellular density determined. They were then diluted to 400000 cells/ml and 25 μl-aliquots dispensed into the wells of 96-well plates. For measurement, 25 μl of test compound in assay buffer was added to the wells, followed by incubation for 30 minutes at room temperature. […] Potencies of peptidic compounds at the GLP-1, glucagon and GIP receptors were determined by exposing cells expressing human glucagon receptor (hGlucagon R), human GIP receptor (hGIP-R) or human GLP-1 receptor (hGLP-1R) to the listed compounds at increasing concentrations and measuring the formed cAMP as described in Methods.

T1 sequence (P43220 24-463): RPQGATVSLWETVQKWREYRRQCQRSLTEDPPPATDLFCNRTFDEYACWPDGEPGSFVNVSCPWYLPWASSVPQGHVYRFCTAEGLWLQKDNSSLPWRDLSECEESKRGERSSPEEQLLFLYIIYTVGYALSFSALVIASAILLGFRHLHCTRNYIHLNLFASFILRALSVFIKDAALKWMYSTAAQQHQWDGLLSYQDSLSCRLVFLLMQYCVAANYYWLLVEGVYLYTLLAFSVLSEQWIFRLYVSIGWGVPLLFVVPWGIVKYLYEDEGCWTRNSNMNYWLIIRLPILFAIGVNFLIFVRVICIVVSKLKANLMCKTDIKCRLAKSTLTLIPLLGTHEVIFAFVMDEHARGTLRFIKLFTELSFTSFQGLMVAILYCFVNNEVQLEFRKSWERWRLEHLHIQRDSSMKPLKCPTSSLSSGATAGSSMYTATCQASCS

**Q.** `CCCCCCCCCCCCCCCCCC(=O)N[C@@H](CCC(=O)NCCCC[C@H](NC(=O)[C@H](CCC(N)=O)NC(=O)[C@H](CCCCN)NC(=O)[C@H](CO)NC(=O)[C@H](CC(C)C)NC(=O)[C@H](CC(=O)O)NC(=O)[C@H](CO)NC(=O)[C@@H](NC(=O)[C@H](Cc1ccccc1)NC(=O)[C@@H](NC(=O)CNC(=O)[C@H](Cc1c[nH]cn1)NC(=O)[C@@H](CO)NC(=O)[C@@H](N)Cc1c[nH]cn1)[C@@H](C)O)[C@@H](C)O)C(=O)N[C@@H](CC(=O)O)C(=O)N[C@@H](CCC(=O)O)C(=O)N[C@@H](CCC(=O)O)C(=O)N[C@@H](C)C(=O)N[C@@H](C)C(=O)N[C@@H](CCCNC(=N)N)C(=O)N[C@@H](CC(C)C)C(=O)N[C@@H](Cc1ccccc1)C(=O)N[C@H](C(=O)N[C@@H](CCC(=O)O)C(=O)N[C@@H](Cc1c[nH]c2ccccc12)C(=O)N[C@@H](CC(C)C)C(=O)NC(C)(C)C(=O)N[C@@H](C)C(=O)NCC(=O)NCC(=O)N1CCC[C@H]1C(=O)N[C@@H](CO)C(=O)N[C@@H](CO)C(=O)NCC(=O)N[C@@H](C)C(=O)N1CCC[C@H]1C(=O)N1CCC[C@H]1C(=O)N1CCC[C@H]1C(=O)N[C@@H](CO)C(N)=O)[C@@H](C)CC)C(=O)O` [SEQ ID NO: 8, H-dSer-H-G-T-F-T-S-D-L-S-K-Q-K(γE-x70)-D-E-E-A-A-R-L-F-I-E-W-L-Aib-A-G-G-P-S-S-G-A-P-P-P-S-NH2] was tested. Which EC50 did it give?
**A.** 1.8 pM

**Q.** `CCCCCCCCCCCCCCCC(=O)N[C@@H](CCC(=O)N[C@@H](CCC(=O)NCCCC[C@H](NC(=O)[C@H](CCC(N)=O)NC(=O)[C@H](CCCCN)NC(=O)[C@H](CO)NC(=O)[C@H](CC(C)C)NC(=O)[C@H](CC(=O)O)NC(=O)[C@H](CO)NC(=O)[C@@H](NC(=O)[C@H](Cc1ccccc1)NC(=O)[C@@H](NC(=O)CNC(=O)[C@H](CCC(N)=O)NC(=O)[C@@H](CO)NC(=O)[C@@H](N)Cc1c[nH]cn1)[C@@H](C)O)[C@@H](C)O)C(=O)N[C@@H](CC(=O)O)C(=O)N[C@@H](CCC(=O)O)C(=O)N[C@@H](CCC(=O)O)C(=O)N[C@@H](C)C(=O)N[C@@H](C)C(=O)N[C@@H](CCCNC(=N)N)C(=O)N[C@@H](CC(C)C)C(=O)N[C@@H](Cc1ccccc1)C(=O)N[C@H](C(=O)N[C@@H](CCC(=O)O)C(=O)N[C@@H](Cc1c[nH]c2ccccc12)C(=O)N[C@@H](CC(C)C)C(=O)NC(C)(C)C(=O)N[C@@H](CO)C(=O)NCC(=O)NCC(=O)N1CCC[C@H]1C(=O)N[C@@H](CO)C(=O)N[C@@H](CO)C(=O)NCC(=O)N[C@@H](C)C(=O)N1CCC[C@H]1C(=O)N1CCC[C@H]1C(=O)N1CCC[C@H]1C(=O)N[C@@H](CO)C(N)=O)[C@@H](C)CC)C(=O)O)C(=O)O` [SEQ ID NO: 15, H-dSer-Q-G-T-F-T-S-D-L-S-K-Q-K(γE-γE-x53)-D-E-E-A-A-R-L-F-I-E-W-L-Aib-S-G-G-P-S-S-G-A-P-P-P-S-NH2] was tested. Which EC50 did it give?
**A.** 1.8 pM

**Q.** For `CCCCCCCCCCCCCCCC(=O)N[C@@H](CCC(=O)N[C@@H](CCC(=O)NCCCC[C@H](NC(=O)[C@H](CCC(N)=O)NC(=O)[C@H](CCCCN)NC(=O)[C@H](CO)NC(=O)[C@H](CC(C)C)NC(=O)[C@H](CC(=O)O)NC(=O)[C@H](CO)NC(=O)[C@@H](NC(=O)[C@H](Cc1ccccc1)NC(=O)[C@@H](NC(=O)CNC(=O)[C@H](CCC(N)=O)NC(=O)[C@@H](CO)NC(=O)[C@@H](N)Cc1c[nH]cn1)[C@@H](C)O)[C@@H](C)O)C(=O)N[C@@H](CC(=O)O)C(=O)N[C@@H](CCC(=O)O)C(=O)N[C@@H](CCC(=O)O)C(=O)N[C@@H](C)C(=O)N[C@H](C(=O)N[C@@H](CCCNC(=N)N)C(=O)N[C@@H](CC(C)C)C(=O)N[C@@H](Cc1ccccc1)C(=O)N[C@H](C(=O)N[C@@H](CCC(=O)O)C(=O)N[C@@H](Cc1c[nH]c2ccccc12)C(=O)N[C@@H](CC(C)C)C(=O)NC(C)(C)C(=O)N[C@@H](C)C(=O)NCC(=O)NCC(=O)N1CCC[C@H]1C(=O)N[C@@H](CO)C(=O)N[C@@H](CO)C(=O)NCC(=O)N[C@@H](C)C(=O)N1CCC[C@H]1C(=O)N1CCC[C@H]1C(=O)N1CCC[C@H]1C(=O)N[C@@H](CO)C(N)=O)[C@@H](C)CC)C(C)C)C(=O)O)C(=O)O` [SEQ ID NO: 17, H-dSer-Q-G-T-F-T-S-D-L-S-K-Q-K(γE-γE-x53)-D-E-E-A-V-R-L-F-I-E-W-L-Aib-A-G-G-P-S-S-G-A-P-P-P-S-NH2], which EC50 is on record?
**A.** 2.4 pM

**Q.** For `CCCCCCCCCCCCCCCCCC(=O)N[C@@H](CCC(=O)NCCOCCOCC(=O)NCCOCCOCC(=O)NCCCC[C@H](NC(=O)[C@H](CCC(N)=O)NC(=O)[C@H](CCCCN)NC(=O)[C@H](CO)NC(=O)[C@H](CC(C)C)NC(=O)[C@H](CC(=O)O)NC(=O)[C@H](CO)NC(=O)[C@@H](NC(=O)[C@H](Cc1ccccc1)NC(=O)[C@@H](NC(=O)CNC(=O)[C@H](CCC(N)=O)NC(=O)[C@@H](CO)NC(=O)[C@@H](N)Cc1c[nH]cn1)[C@@H](C)O)[C@@H](C)O)C(=O)N[C@@H](CC(=O)O)C(=O)N[C@@H](CCC(=O)O)C(=O)N[C@@H](CCC(=O)O)C(=O)N[C@@H](C)C(=O)N[C@@H](C)C(=O)N[C@@H](CCCNC(=N)N)C(=O)N[C@@H](CC(C)C)C(=O)N[C@@H](Cc1ccccc1)C(=O)N[C@H](C(=O)N[C@@H](CCC(=O)O)C(=O)N[C@@H](Cc1c[nH]c2ccccc12)C(=O)N[C@@H](CC(C)C)C(=O)NC(C)(C)C(=O)N[C@@H](C)C(=O)NCC(=O)NCC(=O)N1CCC[C@H]1C(=O)N[C@@H](CO)C(=O)N[C@@H](CO)C(=O)NCC(=O)N[C@@H](C)C(=O)N1CCC[C@H]1C(=O)N1CCC[C@H]1C(=O)N1CCC[C@H]1C(=O)N[C@@H](CO)C(N)=O)[C@@H](C)CC)C(=O)O` [SEQ ID NO: 21, H-dSer-Q-G-T-F-T-S-D-L-S-K-Q-K(AEEAc-AEEAc- E-x70)-D-E-E-A-A-R-L-F-I-E-W-L-Aib-A-G-G-P-S-S-G-A-P-P-P-S-NH2], which EC50 is on record?
**A.** 1 pM

**Q.** `CCCCCCCCCCCCCCCCCC(=O)NCCOCCOCC(=O)NCCOCCOCC(=O)NCCOCCOCC(=O)NCCCC[C@H](NC(=O)[C@H](CCC(N)=O)NC(=O)[C@H](CCCCN)NC(=O)[C@H](CO)NC(=O)[C@H](CC(C)C)NC(=O)[C@H](CC(=O)O)NC(=O)[C@H](CO)NC(=O)[C@@H](NC(=O)[C@H](Cc1ccccc1)NC(=O)[C@@H](NC(=O)CNC(=O)[C@H](CCC(N)=O)NC(=O)[C@@H](CO)NC(=O)[C@@H](N)Cc1c[nH]cn1)[C@@H](C)O)[C@@H](C)O)C(=O)N[C@@H](CC(=O)O)C(=O)N[C@@H](CCC(=O)O)C(=O)N[C@@H](CCC(=O)O)C(=O)N[C@@H](C)C(=O)N[C@@H](C)C(=O)N[C@@H](CCCNC(=N)N)C(=O)N[C@@H](CC(C)C)C(=O)N[C@@H](Cc1ccccc1)C(=O)N[C@H](C(=O)N[C@@H](CCC(=O)O)C(=O)N[C@@H](Cc1c[nH]c2ccccc12)C(=O)N[C@@H](CC(C)C)C(=O)NC(C)(C)C(=O)N[C@@H](C)C(=O)NCC(=O)NCC(=O)N1CCC[C@H]1C(=O)N[C@@H](CO)C(=O)N[C@@H](CO)C(=O)NCC(=O)N[C@@H](C)C(=O)N1CCC[C@H]1C(=O)N1CCC[C@H]1C(=O)N1CCC[C@H]1C(=O)N[C@@H](CO)C(N)=O)[C@@H](C)CC` [SEQ ID NO: 22, H-dSer-Q-G-T-F-T-S-D-L-S-K-Q-K(AEEAc-AEEAc-AEEAc-x70)-D-E-E-A-A-R-L-F-I-E-W-L-Aib-A-G-G-P-S-S-G-A-P-P-P-S-NH2] was tested. Which EC50 did it give?
**A.** 1.8 pM

**Q.** Which EC50 does the source give for `CCCCCCCCCCCCCCCCCC(=O)N[C@@H](CCC(=O)NCCCC[C@H](NC(=O)[C@H](CCC(N)=O)NC(=O)[C@H](CCCCN)NC(=O)[C@H](CO)NC(=O)[C@H](CC(C)C)NC(=O)[C@H](CC(=O)O)NC(=O)[C@H](CO)NC(=O)[C@@H](NC(=O)[C@H](Cc1ccccc1)NC(=O)[C@@H](NC(=O)CNC(=O)[C@H](CCC(N)=O)NC(=O)[C@@H](CO)NC(=O)[C@@H](N)Cc1c[nH]cn1)[C@@H](C)O)[C@@H](C)O)C(=O)N[C@@H](CC(=O)O)C(=O)N[C@@H](CCC(=O)O)C(=O)N[C@@H](CCC(=O)O)C(=O)N[C@@H](C)C(=O)N[C@@H](C)C(=O)N[C@@H](CCCNC(=N)N)C(=O)N[C@@H](CC(C)C)C(=O)N[C@@H](Cc1ccccc1)C(=O)N[C@H](C(=O)N[C@@H](CCC(=O)O)C(=O)N[C@@H](Cc1c[nH]c2ccccc12)C(=O)N[C@@H](CC(C)C)C(=O)NC(C)(C)C(=O)N[C@@H](CCCCN)C(=O)N[C@H](C)C(=O)NCC(=O)N1CCC[C@H]1C(=O)N[C@@H](CO)C(=O)N[C@@H](CO)C(=O)NCC(=O)N[C@@H](C)C(=O)N1CCC[C@H]1C(=O)N1CCC[C@H]1C(=O)N1CCC[C@H]1C(=O)N[C@@H](CO)C(N)=O)[C@@H](C)CC)C(=O)O` [SEQ ID NO: 25, H-dSer-Q-G-T-F-T-S-D-L-S-K-Q-K(γE-x70)-D-E-E-A-A-R-L-F-I-E-W-L-Aib-K-dAla-G-P-S-S-G-A-P-P-P-S-NH2] here?
**A.** 2.1 pM

**Q.** Which EC50 does the source give for `CCCCCCCCCCCCCCCC(=O)N[C@@H](CCC(=O)N[C@@H](CCC(=O)NCCCC[C@H](NC(=O)[C@H](CCC(N)=O)NC(=O)[C@H](CCCCN)NC(=O)[C@H](CO)NC(=O)[C@H](CC(C)C)NC(=O)[C@H](CC(=O)O)NC(=O)[C@H](CO)NC(=O)[C@@H](NC(=O)[C@H](Cc1ccccc1)NC(=O)[C@@H](NC(=O)CNC(=O)[C@H](Cc1c[nH]cn1)NC(=O)[C@@H](CO)NC(=O)[C@@H](N)Cc1c[nH]cn1)[C@@H](C)O)[C@@H](C)O)C(=O)N[C@@H](CCC(=O)O)C(=O)N[C@@H](CCC(=O)O)C(=O)N[C@@H](CCC(=O)O)C(=O)N[C@@H](C)C(=O)N[C@@H](C)C(=O)N[C@@H](CCCNC(=N)N)C(=O)N[C@@H](CC(C)C)C(=O)N[C@@H](Cc1ccccc1)C(=O)N[C@H](C(=O)N[C@@H](CCC(=O)O)C(=O)N[C@@H](Cc1c[nH]c2ccccc12)C(=O)N[C@@H](CC(C)C)C(=O)NC(C)(C)C(=O)N[C@@H](CCCCN)C(=O)N[C@H](C)C(=O)NCC(=O)N1CCC[C@H]1C(=O)N[C@@H](CO)C(=O)N[C@@H](CO)C(=O)NCC(=O)N[C@@H](C)C(=O)N1CCC[C@H]1C(=O)N1CCC[C@H]1C(=O)N1CCC[C@H]1C(=O)N[C@@H](CO)C(N)=O)[C@@H](C)CC)C(=O)O)C(=O)O` [SEQ ID NO: 27, H-dSer-H-G-T-F-T-S-D-L-S-K-Q-K(γE-γE-x53)-E-E-E-A-A-R-L-F-I-E-W-L-Aib-K-dAla-G-P-S-S-G-A-P-P-P-S-NH2] here?
**A.** 2.1 pM
